In ChEMBL document CHEMBL1144380, “Furanyl-1,3-thiazol-2-yl and benzoxazol-5-yl acetic acid derivatives: novel classes of heparanase inhibitor” (Bioorg Med Chem Lett, 2005):

Test system: not listed separately
Assay: In vitro anti-angiogenic activity in Human endothelial cells
Assay type: functional, cell-based
Conditions: endothelial cell

| SMILES | IC50 [µM] |
| --- | --- |
| O=C(O)Cc1nc(-c2ccc(-c3ccc(NC(=O)c4ccc(OC(F)(F)F)cc4)cc3Cl)o2)cs1 | 0.5 |
| O=C(O)Cc1ccc2oc(-c3ccc(NC(=O)/C=C/c4ccc(Cl)c(Cl)c4)c(F)c3)nc2c1 | 0.2 |
| O=C(O)Cc1ccc2oc(-c3ccc(NC(=O)/C=C/c4ccc(Br)cc4)cc3Cl)nc2c1 | 7.5 |
| O=C(O)Cc1ccc2oc(-c3ccc(NC(=O)/C=C/c4ccc(F)c(Cl)c4)c(F)c3)nc2c1 | 1 |
| N#Cc1ccc(/C=C/C(=O)Nc2ccc(-c3nc4cc(CC(=O)O)ccc4o3)cc2F)cc1 | 1 |
| O=C(O)Cc1ccc2oc(-c3ccc(NC(=O)/C=C/c4cccc(Br)c4)cc3Cl)nc2c1 | 20 |
| O=C(O)Cc1nc(-c2ccc(-c3ccc(NC(=O)/C=C/c4ccc(OC(F)(F)F)cc4)cc3Cl)o2)cs1 | 20 |
| O=C(O)Cc1ccc2oc(-c3ccc(NC(=O)/C=C/c4cccc(Cl)c4F)c(F)c3)nc2c1 | 5 |
| O=C(O)Cc1ccc2oc(-c3ccc(NC(=O)/C=C/c4ccc(Cl)cc4Cl)cc3Cl)nc2c1 | 5 |
| O=C(O)Cc1nc(-c2ccc(-c3ccc(NC(=O)c4ccc(Cl)cc4Cl)cc3Cl)o2)cs1 | 0.5 |
| O=C(O)Cc1ccc2oc(-c3ccc(NC(=O)/C=C/c4cccc(Cl)c4)c(F)c3)nc2c1 | 7.5 |
| O=C(O)Cc1nc(-c2ccc(-c3ccc(NC(=O)c4ccc(Cl)cc4)cc3Cl)o2)cs1 | 2 |
| O=C(O)Cc1ccc2oc(-c3ccc(NC(=O)/C=C/c4cccc(Br)c4)cc3)nc2c1 | > 20 |
| O=C(O)Cc1ccc2oc(-c3ccc(NC(=O)/C=C/c4ccc(Br)cc4)c(F)c3)nc2c1 | 1 |
| N#Cc1cccc(C(=O)Nc2ccc(-c3ccc(-c4csc(CC(=O)O)n4)o3)c(Cl)c2)c1 | > 20 |
| O=C(O)Cc1nc(-c2ccc(-c3ccc(NC(=O)/C=C/c4ccc(Br)cc4)cc3Cl)o2)cs1 | 1 |
| O=C(O)Cc1nc(-c2ccc(-c3ccc(NC(=O)c4ccc(C(F)(F)F)cc4)cc3Cl)o2)cs1 | 7.5 |
| O=C(O)Cc1ccc2oc(-c3ccc(NC(=O)/C=C/c4ccc(Br)cc4)cc3)nc2c1 | 20 |
| COc1ccc(/C=C/C(=O)Nc2ccc(-c3ccc(-c4csc(CC(=O)O)n4)o3)c(Cl)c2)cc1 | 5 |
| O=C(O)Cc1nc(-c2ccc(-c3ccc(NC(=O)/C=C/c4ccccc4)cc3Cl)o2)cs1 | 15 |
| O=C(O)Cc1nc(-c2ccc(-c3ccc(NC(=O)/C=C/c4ccc(Cl)cc4Cl)cc3Cl)o2)cs1 | > 20 |
| O=C(O)Cc1ccc2oc(-c3ccc(NC(=O)/C=C/c4cccc(Br)c4)c(F)c3)nc2c1 | 1 |
| O=C(O)Cc1ccc2oc(-c3ccc(NC(=O)/C=C/c4ccc(Cl)cc4Cl)c(F)c3)nc2c1 | > 20 |

Molecular target: Cytochrome P450 2C9 (Homo sapiens, UniProt P11712)
Assay: In vitro inhibitory concentration against Cytochrome P450 2C9
Assay type: ADME
Conditions: not given

Cytochrome P450 2C9, sequence (P11712 whole entry): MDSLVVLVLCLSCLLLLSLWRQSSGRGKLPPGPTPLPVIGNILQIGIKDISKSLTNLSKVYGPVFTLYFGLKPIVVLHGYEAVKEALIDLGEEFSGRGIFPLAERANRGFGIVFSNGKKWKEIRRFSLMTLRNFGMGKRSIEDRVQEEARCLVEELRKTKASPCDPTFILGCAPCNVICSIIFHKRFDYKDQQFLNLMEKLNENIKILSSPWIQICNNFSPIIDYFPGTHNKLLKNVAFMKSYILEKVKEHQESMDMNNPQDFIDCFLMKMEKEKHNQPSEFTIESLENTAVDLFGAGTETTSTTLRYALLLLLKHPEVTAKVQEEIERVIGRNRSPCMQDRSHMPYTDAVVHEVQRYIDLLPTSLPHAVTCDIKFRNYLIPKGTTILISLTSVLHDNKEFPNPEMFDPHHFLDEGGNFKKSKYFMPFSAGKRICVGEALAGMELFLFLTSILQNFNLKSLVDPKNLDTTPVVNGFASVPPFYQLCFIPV

| SMILES | IC50 [µM] |
| --- | --- |
| O=C(O)Cc1ccc2oc(-c3ccc(NC(=O)/C=C/c4ccc(Br)cc4)c(F)c3)nc2c1 | > 30 |

Molecular target: T1, Heparanase (Homo sapiens, UniProt Q9Y251)
T1 sequence (Q9Y251 whole entry): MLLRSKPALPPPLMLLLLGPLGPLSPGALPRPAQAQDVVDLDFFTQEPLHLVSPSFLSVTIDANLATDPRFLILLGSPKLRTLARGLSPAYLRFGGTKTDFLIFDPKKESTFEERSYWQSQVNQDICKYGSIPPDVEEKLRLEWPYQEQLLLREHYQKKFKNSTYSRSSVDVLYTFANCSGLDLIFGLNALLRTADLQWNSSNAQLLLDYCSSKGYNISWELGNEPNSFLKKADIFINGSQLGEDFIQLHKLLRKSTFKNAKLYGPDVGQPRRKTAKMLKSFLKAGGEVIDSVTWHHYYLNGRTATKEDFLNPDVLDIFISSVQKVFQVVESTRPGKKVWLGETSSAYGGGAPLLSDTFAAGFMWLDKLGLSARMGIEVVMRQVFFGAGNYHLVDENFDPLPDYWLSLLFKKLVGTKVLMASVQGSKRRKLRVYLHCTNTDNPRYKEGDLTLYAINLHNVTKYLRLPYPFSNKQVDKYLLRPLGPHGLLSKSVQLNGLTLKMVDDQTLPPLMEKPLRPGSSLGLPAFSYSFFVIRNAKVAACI
Assay: In vitro inhibitory concentration against human Heparanase
Conditions: not given

| SMILES | IC50 [µM] |
| --- | --- |
| O=C(O)Cc1nc(-c2ccc(-c3ccc(NC(=O)c4ccccc4)cc3Cl)o2)cs1 | > 30 |
| O=C(O)Cc1ccc2oc(-c3ccc(NC(=O)/C=C/c4ccccc4)cc3Cl)nc2c1 | > 30 |
| COc1ccccc1NC(=O)/C=C/c1ccc(-c2nc3cc(CC(=O)O)ccc3o2)cc1 | > 10 |
| O=C(O)Cc1ccc2oc(-c3ccc(NC(=O)c4ccc(Br)cc4)cc3Cl)nc2c1 | > 10 |
| COc1ccc(NC(=O)/C=C/c2ccc(-c3nc4cc(CC(=O)O)ccc4o3)cc2)cc1OC | > 10 |
